From article PMC3130785, “Small Compound 6-O-Angeloylplenolin Induces Mitotic Arrest and Exhibits Therapeutic Potentials in Multiple Myeloma” (PLoS ONE, 2011)
Read-outs that look alike come from different tables or passages of the source.

Legend:
pJak2 and pStat3 = assay: Western blotting, IL-6 stimulation; assay type: cell-based, human; settings: MM.1S
Description: Cell pellets were lysed in RIPA buffer containing 50 mM Tris pH 8.0, 150 mM NaCl, 0.1% SDS, 0.5% deoxycholate, 1% NP-40, 1 mM DTT, 1 mM NaF, 1 mM sodium vanadate, and protease inhibitors cocktail (Sigma). For immunoprecipitations, cells were lysed on ice for 15 minutes in RIPA buffer. Lysates were centrifuged. The supernatant was incubated with indicated antibodies overnight, after which protein A/G Plus beads (Santa Cruz Biotechnology) were added and incubated for 3 h. The beads were washed 4 times in RIPA buffer. Then the beads were resuspended in 1× sample buffer and boiled for 3 min. Protein extracts were quantitated and loaded on 8% to 12% sodium dodecyl sulfate polyacrylamide gel, electrophoresed, and transferred to a nitrocellulose membrane (Whatman). The membrane was incubated with primary antibody, washed, and incubated with horseradish peroxidase (HRP)–conjugated secondary antibody (Pierce). Detection was performed by using a chemiluminescent western detection kit (Cell Signaling). […]
Figure 5 6-OAP overcomes the protective effects of IL-6, IGF-I and BMSCs on MM cells. […] Cell proliferation was assessed by MTT assay. […] Cell proliferation was assessed by MTT assay. *p<.01,** p<.05. […]

[1] = tested on: human colorectum, liver, stomach, lung, and skin tumor cells; design: method as in PMID 20183316; settings: preliminary data; cited from earlier work
[2] = Pharmacokinetic study (LC-MS/MS plasma concentration); assay type: in vivo, Sprague-Dawley rats; settings: rat; for MRT last: read-out: MRT0-t
Description: Eight Sprague–Dawley rats (220–250 g, female) were bought from the Laboratory Animal Center of Nanfang Medical University (Guangzhou, China), and maintained and monitored in a specific pathogen-free environment. They were fasted overnight before the experiments. All rat studies were conducted according to protocols approved by the Animal Ethics Committee of our institute. Four rats were administered with 6-OAP (30 mg/kg) by intravenous injection, and the other four rats were inoculated with 6-OAP (40 mg/kg) by intraperitoneal injection. Blood samples of 100–200 µL were collected from the orbit at the time points indicated. The plasma concentrations of 6-OAP were determined by LC-MS/MS. The pharmacokinetic parameters were obtained from the pharmacokinetic software DAS 2.0 (Drug and Statistics Version 2.0).

[3] = tested on: U266, RPMI 8226, MM.1S, and MM.1R cells; assay: MTT assay, MM cell lines together; assay type: cell-based; settings: Homo sapiens, range over the four MM cell lines
Description: U266, RPMI 8226 cells (1×10^4), primary CD138+ cells, PBMCs (5×10^4), and BMSCs (1×10^4) were cultured in 96-well dishes and incubated without or with 6-OAP at indicated concentration for 48 h. MM.1S and MM.1R cells (2×10^4) were seeded into 96-well dishes and pre-cultured for 24 h, then treated with 6-OAP for 48 h. Cell proliferation was determined by MTT assay. Cell viability was estimated by trypan blue dye exclusion.

[4] = female, Sprague-Dawley, in vivo, ip (40 mg/kg)
[5] = female, Sprague-Dawley, in vivo, iv (30 mg/kg)

## CC=C(C)C(=O)OC1C2C(CC(C)C3C=CC(=O)C31C)OC(=O)C2C (stereo not drawn) [6-OAP, 6-O-angeloylplenolin]
pJak2 and pStat3; IL-6 10 ng/ml, then 6-OAP 5 to 10 µM for 12 h
  pStat3 in cells upon IL-6: dramatically reduced
pJak2 and pStat3; pretreatment 6-OAP for 12 hours, IL-6 10 ng/ml 10 to 30 min
  IL-6-induced pJak2 and pStat3: markedly inhibited IL-6-induced upregulation of pJak2 and pStat3
[1]
  proliferation of tumor cells: could inhibit proliferation
[2]; [4]
  AUC(0-t): 18000 ± 2700 ng·h/mL
  Cmax: 3870 ± 1120 ng/mL
  half-life: 4.68 ± 0.463 h
  MRT last: 5.75 ± 1.03 h
[2]; female, Sprague-Dawley, in vivo, ip (40 mg/kg), read-out: BA (bioavailability)
  bioavailability: 92.5%
[2]; [5]
  AUC(0-t): 14700 ± 1020 ng·h/mL
  Cmax: 16400 ± 1940 ng/mL
  half-life: 1.76 ± 0.453 h
  MRT last: 1.44 ± 0.448 h
[2]; female, Sprague-Dawley, in vivo, iv (30 mg/kg), read-out: CLz (converted)
  clearance: 34.1 mL/min/kg
[2]; female, Sprague-Dawley, in vivo, ip, 40 mg/kg, ip 40 mg/kg, read-out: time of peak concentration (converted)
  Tmax: 0.813 h
[2]; female, Sprague-Dawley, in vivo, ip, 40 mg/kg, ip (40 mg/kg), read-out: Tmax
  Tmax: 0.813 ± 0.08 h
[2]; female, Sprague-Dawley, in vivo, iv, 30 mg/kg, iv 30 mg/kg, read-out: time of peak concentration (converted)
  Tmax: 0.033 h
[2]; female, Sprague-Dawley, in vivo, iv, 30 mg/kg, iv (30 mg/kg), read-out: Tmax
  Tmax: 0.033 h
[2]; ip 40 mg/kg
  CLz: 37.33 ± 5.58 mL/min/kg
  peak plasma concentration: 11.191 ± 3.225 µM
[2]; iv 30 mg/kg
  peak plasma concentration: 47.506 ± 5.595 µM
[3]
  IC50: 3.5 to 9.2 µM
